pIC50: −log10 of the molar value. Values belong to the compound of their own block, whether it stands above or below them.
Test system: 485176-168-R4-J1-PDC complex spheroid growth
Experiment: Anticancer human tumor 485176-168-R4-J1-PDC patient-derived pancreatic adenocarcinoma cell line growth inhibition [RAS]
Conditions: for pIC50: curve of first compound; for viability, T/C: stronger effect = lower value
Summary of the method: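 Agents were tested in combination matrices in half-log decrements from a top concentration at or near clinical Cmax (10 microM if undetermined). Targets were multi-cell spheroids of tumour lines plus HUVEC and MSC stromal cells.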

[1] = second compound 0.000949 µM, first compound 0.0316 µM
[2] = second compound 0.000949 µM, first compound 0.1 µM
[3] = second compound 0.000949 µM, first compound 0.316 µM
[4] = second compound 0.000949 µM, first compound 1 µM
[5] = second compound 0.000949 µM, first compound 3.16 µM
[6] = second compound 0.000949 µM, first compound 10 µM
[7] = second compound 0.003 µM, first compound 0.0316 µM
[8] = second compound 0.003 µM, first compound 0.1 µM
[9] = second compound 0.003 µM, first compound 0.316 µM
[10] = second compound 0.003 µM, first compound 1 µM
[11] = second compound 0.003 µM, first compound 3.16 µM
[12] = second compound 0.003 µM, first compound 10 µM
[13] = second compound 0.00949 µM, first compound 0.0316 µM
[14] = second compound 0.00949 µM, first compound 0.1 µM
[15] = second compound 0.00949 µM, first compound 0.316 µM
[16] = second compound 0.00949 µM, first compound 1 µM
[17] = second compound 0.00949 µM, first compound 3.16 µM
[18] = second compound 0.00949 µM, first compound 10 µM
[19] = second compound 0.03 µM, first compound 0.0316 µM
[20] = second compound 0.03 µM, first compound 0.1 µM
[21] = second compound 0.03 µM, first compound 0.316 µM
[22] = second compound 0.03 µM, first compound 1 µM
[23] = second compound 0.03 µM, first compound 3.16 µM
[24] = second compound 0.03 µM, first compound 10 µM
[25] = second compound 0.0949 µM, first compound 0.0316 µM
[26] = second compound 0.0949 µM, first compound 0.1 µM
[27] = second compound 0.0949 µM, first compound 0.316 µM
[28] = second compound 0.0949 µM, first compound 1 µM
[29] = second compound 0.0949 µM, first compound 3.16 µM
[30] = second compound 0.0949 µM, first compound 10 µM
[31] = second compound 0.3 µM, first compound 0.0316 µM
[32] = second compound 0.3 µM, first compound 0.1 µM
[33] = second compound 0.3 µM, first compound 0.316 µM
[34] = second compound 0.3 µM, first compound 1 µM
[35] = second compound 0.3 µM, first compound 3.16 µM
[36] = second compound 0.3 µM, first compound 10 µM
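Also: spheroids exposed to compounds for seven days before readout.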
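For viability, T/C in this document: luminescence viability expressed relative to DMSO vehicle wells set as 100%.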

pIC50 (second compound 0.000949 µM): 5.63 | pIC50 (second compound 0.003 µM): 5.43 | pIC50 (second compound 0.00949 µM): 5.78 | pIC50 (second compound 0.03 µM): 6.07 | pIC50 (second compound 0.0949 µM): 6.14 | pIC50 (second compound 0.3 µM): 6.10
SMILES: CC(C)NCC(C(=O)N1CCN(c2ncnc3c2C(C)CC3O)CC1)c1ccc(Cl)cc1 (stereo not drawn) + CCn1c(-c2cc(N3CCN(C)CC3)cnc2C(C)OC)c2c3cc(ccc31)-c1csc(n1)CC(NC(=O)C1CC1C)C(=O)N1CCCC(N1)C(=O)OCC(C)(C)C2
viability, T/C [1]: 116% | viability, T/C [2]: 99.5% | viability, T/C [3]: 78.7% | viability, T/C [4]: 64.8% | viability, T/C [5]: 43.6% | viability, T/C [6]: 33% | viability, T/C [7]: 82.2% | viability, T/C [8]: 101% | viability, T/C [9]: 74.3% | viability, T/C [10]: 65% | viability, T/C [11]: 55.1% | viability, T/C [12]: 38.8% | viability, T/C [13]: 97.9% | viability, T/C [14]: 79.7% | viability, T/C [15]: 82.4% | viability, T/C [16]: 56.8% | viability, T/C [17]: 38.7% | viability, T/C [18]: 32.3% | viability, T/C [19]: 94.7% | viability, T/C [20]: 73.8% | viability, T/C [21]: 81.2% | viability, T/C [22]: 44.4% | viability, T/C [23]: 40.5% | viability, T/C [24]: 31.7% | viability, T/C [25]: 81.3% | viability, T/C [26]: 67.9% | viability, T/C [27]: 70.3% | viability, T/C [28]: 41.3% | viability, T/C [29]: 35.5% | viability, T/C [30]: 26.8% | viability, T/C [31]: 72.2% | viability, T/C [32]: 72.1% | viability, T/C [33]: 57.5% | viability, T/C [34]: 46.4% | viability, T/C [35]: 38.4% | viability, T/C [36]: 26.8%

pIC50 (second compound 0.000949 µM): 7.69 | pIC50 (second compound 0.003 µM): 7.64 | pIC50 (second compound 0.00949 µM): 7.73 | pIC50 (second compound 0.03 µM): 7.86 | pIC50 (second compound 0.0949 µM): 7.96 | pIC50 (second compound 0.3 µM): 8.02
SMILES: CC(C)n1nc(-c2ccc3oc(N)nc3c2)c2c(N)ncnc21 + CCn1c(-c2cc(N3CCN(C)CC3)cnc2C(C)OC)c2c3cc(ccc31)-c1csc(n1)CC(NC(=O)C1CC1C)C(=O)N1CCCC(N1)C(=O)OCC(C)(C)C2
viability, T/C (second compound 0.000949 µM, first compound 0.000316 µM): 98.5% | viability, T/C (second compound 0.000949 µM, first compound 0.001 µM): 93.7% | viability, T/C (second compound 0.000949 µM, first compound 0.00316 µM): 76.8% | viability, T/C (second compound 0.000949 µM, first compound 0.01 µM): 70.4% | viability, T/C [1]: 37.4% | viability, T/C [2]: 19.2% | viability, T/C (second compound 0.003 µM, first compound 0.000316 µM): 96.8% | viability, T/C (second compound 0.003 µM, first compound 0.001 µM): 89.6% | viability, T/C (second compound 0.003 µM, first compound 0.00316 µM): 93.3% | viability, T/C (second compound 0.003 µM, first compound 0.01 µM): 65.9% | viability, T/C [7]: 44.4% | viability, T/C [8]: 18.5% | viability, T/C (second compound 0.00949 µM, first compound 0.000316 µM): 97.1% | viability, T/C (second compound 0.00949 µM, first compound 0.001 µM): 89% | viability, T/C (second compound 0.00949 µM, first compound 0.00316 µM): 76.9% | viability, T/C (second compound 0.00949 µM, first compound 0.01 µM): 63.9% | viability, T/C [13]: 38.4% | viability, T/C [14]: 19.1% | viability, T/C (second compound 0.03 µM, first compound 0.000316 µM): 95.9% | viability, T/C (second compound 0.03 µM, first compound 0.001 µM): 81% | viability, T/C (second compound 0.03 µM, first compound 0.00316 µM): 63% | viability, T/C (second compound 0.03 µM, first compound 0.01 µM): 63.3% | viability, T/C [19]: 34.8% | viability, T/C [20]: 23.6% | viability, T/C (second compound 0.0949 µM, first compound 0.000316 µM): 94.3% | viability, T/C (second compound 0.0949 µM, first compound 0.001 µM): 84.8% | viability, T/C (second compound 0.0949 µM, first compound 0.00316 µM): 61.5% | viability, T/C (second compound 0.0949 µM, first compound 0.01 µM): 57.3% | viability, T/C [25]: 30.9% | viability, T/C [26]: 17.4% | viability, T/C (second compound 0.3 µM, first compound 0.000316 µM): 81.1% | viability, T/C (second compound 0.3 µM, first compound 0.001 µM): 77% | viability, T/C (second compound 0.3 µM, first compound 0.00316 µM): 68.2% | viability, T/C (second compound 0.3 µM, first compound 0.01 µM): 50.2% | viability, T/C [31]: 25.9% | viability, T/C [32]: 16.1%

pIC50 (second compound 0.000949 µM): < 5.00 | pIC50 (second compound 0.003 µM): < 5.00 | pIC50 (second compound 0.00949 µM): 5.10 | pIC50 (second compound 0.03 µM): 5.12 | pIC50 (second compound 0.0949 µM): 5.68 | pIC50 (second compound 0.3 µM): < 5.00
SMILES: CC(Nc1ccc2c(c1)OCCn1cc(N3C(=O)OCC3C(F)F)nc1-2)C(N)=O (stereo not drawn) + CCn1c(-c2cc(N3CCN(C)CC3)cnc2C(C)OC)c2c3cc(ccc31)-c1csc(n1)CC(NC(=O)C1CC1C)C(=O)N1CCCC(N1)C(=O)OCC(C)(C)C2
viability, T/C [1]: 100% | viability, T/C [2]: 91.9% | viability, T/C [3]: 71.8% | viability, T/C [4]: 79.8% | viability, T/C [5]: 70.5% | viability, T/C [6]: 51.1% | viability, T/C [7]: 92.8% | viability, T/C [8]: 74.8% | viability, T/C [9]: 73.7% | viability, T/C [10]: 72% | viability, T/C [11]: 61.3% | viability, T/C [12]: 47% | viability, T/C [13]: 81.5% | viability, T/C [14]: 72.7% | viability, T/C [15]: 76.9% | viability, T/C [16]: 76.1% | viability, T/C [17]: 62.2% | viability, T/C [18]: 46.7% | viability, T/C [19]: 75.9% | viability, T/C [20]: 78.5% | viability, T/C [21]: 69.3% | viability, T/C [22]: 60.5% | viability, T/C [23]: 58% | viability, T/C [24]: 48.1% | viability, T/C [25]: 66.9% | viability, T/C [26]: 83.7% | viability, T/C [27]: 77.1% | viability, T/C [28]: 51.9% | viability, T/C [29]: 56.8% | viability, T/C [30]: 41.2% | viability, T/C [31]: 75.6% | viability, T/C [32]: 72.3% | viability, T/C [33]: 57.6% | viability, T/C [34]: 57.7% | viability, T/C [35]: 51.3% | viability, T/C [36]: 51.2%

pIC50 (second compound 0.000949 µM): < 5.00 | pIC50 (second compound 0.003 µM): < 5.00 | pIC50 (second compound 0.00949 µM): < 5.00 | pIC50 (second compound 0.03 µM): < 5.00 | pIC50 (second compound 0.0949 µM): 5.62 | pIC50 (second compound 0.3 µM): 5.36
SMILES: C[C@@H](NC(=O)c1ncnc(N)c1Cl)c1ncc(C(=O)Nc2cc(C(F)(F)F)c(Cl)cn2)s1 + CCn1c(-c2cc(N3CCN(C)CC3)cnc2C(C)OC)c2c3cc(ccc31)-c1csc(n1)CC(NC(=O)C1CC1C)C(=O)N1CCCC(N1)C(=O)OCC(C)(C)C2
viability, T/C [1]: 102% | viability, T/C [2]: 92.3% | viability, T/C [3]: 83.9% | viability, T/C [4]: 67.5% | viability, T/C [5]: 83.7% | viability, T/C [6]: 83.8% | viability, T/C [7]: 86.6% | viability, T/C [8]: 97.8% | viability, T/C [9]: 92.4% | viability, T/C [10]: 84.1% | viability, T/C [11]: 71.7% | viability, T/C [12]: 58.1% | viability, T/C [13]: 92.7% | viability, T/C [14]: 90.9% | viability, T/C [15]: 74% | viability, T/C [16]: 74% | viability, T/C [17]: 57.6% | viability, T/C [18]: 56.2% | viability, T/C [19]: 92.1% | viability, T/C [20]: 77.6% | viability, T/C [21]: 89.5% | viability, T/C [22]: 55.8% | viability, T/C [23]: 56.3% | viability, T/C [24]: 43.8% | viability, T/C [25]: 78.2% | viability, T/C [26]: 80.3% | viability, T/C [27]: 59.7% | viability, T/C [28]: 51.4% | viability, T/C [29]: 56.1% | viability, T/C [30]: 36.2% | viability, T/C [31]: 85.4% | viability, T/C [32]: 69.6% | viability, T/C [33]: 65.5% | viability, T/C [34]: 58.7% | viability, T/C [35]: 57% | viability, T/C [36]: 42.3%
